Results: patent US11098061B2 (Celgene CAR LLC, priority 2013, dated 2021)

Experiments:
[1] = target: T1, MK2 (Homo sapiens (Human), UniProt P49137); assay: MK2 cellular assay (Hsp27 phosphorylation in Thp-1 cells); format: cell-based; details: differentiated Thp-1 cells, compound 1 hour, 50 ng/ml LPS 15 minutes, phosphorylation of Hsp27; read-out: MK2EC50
Protocol: Compounds were assayed in Thp-1 human acute monocytic leukemia cells to measure inhibition of MK2 activity. Thp-1 were grown in suspension in T225 flasks. Two days prior to assay, Thp-1 cells were spun down, counted and plated at 1×10^6 cells per well of a 12 well plate in complete media containing 10 ng/ml PMA (phorbol myristate acetate) to differentiate the cells. On day of assay, cells were washed with complete media, and compound was added to differentiated Thp-1 cells for 1 hour. Cells were washed again, and complete media containing 50 ng/ml LPS (lipopolysaccharide) was added. After 15 minutes, cells were washed once with PBS and lysed on ice with BioRad Bioplex lysis buffer. 20 μg total protein from lysates were loaded on gel and blots were probed for phosphorylation of the MK2 substrate Hsp27. Dose response inhibition of MK2 signaling in differentiated Thp-1 cells was used to determine the EC50 for compounds reported in Table A in the column entitled “MK2 EC50.”

[2] = test system: TNFα release; assay: PO mouse PD experiment (TNFα release after LPS); format: in vivo; details: CD-1 male mice, 30 mg/kg PO, 1 hour prior to LPS, read-out: % Inhibition of TNFa
Protocol: CD-1 male mice, approximately 5 weeks old were acquired from Charles River Laboratories. Animals were housed in ventilated cages with a 12/12 light cycle and provided rodent chow and water ad libitum. Mice were acclimated at least 1 week prior to study initiation (approximately 6 weeks old). Five (5) mice per group were predosed at 30 mg/kg PO with one of the following compounds: III-8, III-35, II-27, III-47, III-56, V-39, II-27, III-37, II-e-1, II-e-3, III-40, and V-58 (by oral gavage as a suspension in 0.5% methyl cellulose/0.25% Tween 80 in deionized water), 1 hour prior to LPS administration. LPS (E.Coli 055:B5 from Sigma, Cat #L2880) was diluted in 0.9% sterile saline (Webster Veterinary Supply, Cat #07-883-6734) to a final concentration of 30 μg/mL. Animals were administered 15 μg in 0.5 mL/mouse (approximately 0.5 mg/kg LPS) intraperitoneally. One hour post LPS administration, the mice were sacrificed via CO2 and whole blood was collected by cardiac puncture. Blood was placed in EDTA K2 tubes (Braintree Scientific, Cat #MT-1395), inverted 3 times and placed on wet ice until centrifugation at 4° C. Plasma was collected and stored on dry ice until stored at −80° C. until processing. TNFα levels were quantified using the “Mouse TNF-alpha Ultra-Sensitive Kit” from mesoscale.com (catalog number K152BHC-2) in conjunction with an MSD plate reader.

[3] = target: T1, MK2; assay: MK2 modification assessment by whole protein mass spectrometry; format: binding; details: intact MK2, 60 min, 10-fold excess of compound to protein
In short: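 MK2 treated with compound is analysed intact by MALDI-TOF after C4 cleanup in sinapinic acid matrix. Percent modification is the centroid mass shift against control MK2 divided by compound mass.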

[4] = target: p38a activated, mitogen-activated protein kinase-activated protein kinase 2 (MAPKAP-K2 or MK-2) enzyme (Homo sapiens (Human), UniProt P49137); assay: MK2 Omnia continuous-read kinase assay for compound potency; format: biochemical; details: [MK-2]=0.4 nM, [ATP]=1.0 mM, [ST3-Sox]=10 μM
In short: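 Continuous Omnia fluorescence read (λex360/λem485) every 71 s after starting with 0.4 nM MK-2, with 1.0 mM ATP (appKM 8-10 μM) and 10 μM ST3-Sox substrate.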

T1 sequence (P49137 whole entry): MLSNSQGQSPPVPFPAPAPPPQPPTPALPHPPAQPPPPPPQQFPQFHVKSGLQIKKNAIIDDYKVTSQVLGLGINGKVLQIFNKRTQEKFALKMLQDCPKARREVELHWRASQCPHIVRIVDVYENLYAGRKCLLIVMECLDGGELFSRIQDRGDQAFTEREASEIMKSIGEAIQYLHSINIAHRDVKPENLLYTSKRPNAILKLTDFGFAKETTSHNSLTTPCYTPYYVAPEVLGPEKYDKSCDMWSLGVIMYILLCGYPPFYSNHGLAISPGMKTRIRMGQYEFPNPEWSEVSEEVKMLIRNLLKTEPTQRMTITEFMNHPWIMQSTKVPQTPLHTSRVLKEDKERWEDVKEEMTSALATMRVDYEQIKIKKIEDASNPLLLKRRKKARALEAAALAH
Sequence of p38a activated, mitogen-activated protein kinase-activated protein kinase 2 (MAPKAP-K2 or MK-2) enzyme (P49137 whole entry): as above

Compound	EC50 [1]	MK2 Mass Mod [3]	IC50 [4]	inhibition in vivo at 30 mg/kg [2]
C=CC(=O)Nc1cc(-c2cc3c(ccc4c5c([nH]c43)CCC5=O)cn2)ccc1F [II-e-3, N-(2-fluoro-5-(7-oxo-7,8,9,1-tetrahydrocyclopenta[4,5]pyrrolo[2,3-f]isoquinolin-2-yl)phenyl)acrylamide]	–	–	–	≤ 20%
C=CC(=O)Nc1cc(NC(=O)c2ccc3sc4c(c3c2)NC[C@@H](C)NC4=O)ccc1OCCOC [III-7, (R)—N-(3-acrylamido-4-(2-methoxyethoxy)phenyl)-3-methyl-5-oxo-2,3,4,5-tetrahydro-1H-benzo[4,5]thieno[3,2-e][1,4]diazepine-9-carboxamide]	> 1000 nM	E (mass modification of ≥70%)	< 100 nM	–
C=CC(=O)Nc1ccccc1NC(=O)c1ccc2sc3c(c2c1)NC[C@@H](C)NC3=O [III-10, (R)—N-(2-acrylamidophenyl)-3-methyl-5-oxo-2,3,4,5-tetrahydro-1H-benzo[4,5]thieno[3,2-e][1,4]diazepine-9-carboxamide]	> 1000 nM	E (mass modification of ≥70%)	101 to 500 nM	–
C=CC(=O)N1CCC[C@@H](NC(=O)c2ccc3sc4c(c3c2)NC[C@@H](C)NC4=O)C1 [III-42]	> 1000 nM	E (mass modification of ≥70%)	< 100 nM	–
C=CC(=O)N1C[C@H](C)Oc2ccc(NC(=O)c3ccc4sc5c(c4c3)NC[C@@H](C)NC5=O)cc21 [III-53, (R)—N—((S)-4-acryloyl-2-methyl-3,4-dihydro-2H-benzo[b][1,4]oxazin-6-yl)-3-methyl-5-oxo-2,3,4,5-tetrahydro-1H-benzo[4,5]thieno[3,2-e][1,4]diazepine-9-carboxamide]	> 1000 nM	E (mass modification of ≥70%)	< 100 nM	–
C=CC(=O)Nc1cc(NC(=O)c2ccc3sc4c(c3c2)NC[C@@H](C)NC4=O)ccc1C1CCN(C)CC1 [III-56, (R)—N-(3-acrylamido-4-(1-methylpiperidin-4-yl)phenyl)-3-methyl-5-oxo-2,3,4,5-tetrahydro-1H-benzo[4,5]thieno[3,2-e][1,4]diazepine-9-carboxamide]	–	–	–	≤ 20%
C=CC(=O)Nc1cc(OCC)ccc1Nc1c(C)c(NC2CCCNC2)nc2ccnn12 (stereo not shown) [IV-2, N-(5-ethoxy-2-((6-methyl-5-(piperidin-3-ylamino)pyrazolo [1,5-a]pyrimidin-7-yl)amino)phenyl)acrylamide]	> 1000 nM	E (mass modification of ≥70%)	101 to 500 nM	–
C=CC(=O)Nc1cc(-c2nccc(-c3cc4n(c3)CCNC4=O)n2)ccc1OC [V-c-2, N-(2-methoxy-5-(4-(1-oxo-1,2,3,4-tetrahydropyrrolo[1,2-a]pyrazin-7-yl)pyrimidin-2-yl)phenyl)acrylamide]	> 1000 nM	E (mass modification of ≥70%)	< 100 nM	–
C=CC(=O)N1CCOc2ccc(-c3nccc(-c4cc5n(c4)CCNC5=O)n3)cc21 [V-c-3, 7-(2-(4-acryloyl-3,4-dihydro-2H-benzo[b][1,4]oxazin-6-yl)pyrimidin-4-yl)-3,4-dihydropyrrolo[1,2-a]pyrazin-1(2H)-one]	> 1000 nM	E (mass modification of ≥70%)	< 100 nM	–

Continued, in another order:

EC50 [1]	MK2 Mass Mod [3]	IC50 [4]	Compound	inhibition in vivo at 30 mg/kg [2]
101 to 500 nM	E (mass modification of ≥70%)	101 to 500 nM	C=CC(=O)Nc1cccc2oc(-c3ccc4cc5n(c4c3)C3(CCC3)CNC5=O)nc12 [Compound V-39, N-(2-(1′-oxo-2′,3′-dihydro-1′H-spiro[cyclobutane-1,4′-pyrazino [1,2-a]indol]-7′-yl)benzo[d]oxazol-4-yl)acrylamide]	≥ 81%
< 100 nM	E (mass modification of ≥70%)	< 100 nM	C=CC(=O)N1c2cc(NC(=O)c3ccc4cc5n(c4c3)C3(CCC3)CNC5=O)ccc2OCC1(C)C [Compound V-58, N-(4-acryloyl-3,3-dimethyl-3,4-dihydro-2H-benzo[b][1,4]oxazin-6-yl)-1′-oxo-2′,3′-dihydro-1′H-spiro[cyclobutane-1,4′-pyrazino [1,2-a]indole]-7′-carboxamide]	≤ 20%
< 100 nM	E (mass modification of ≥70%)	< 100 nM	C=CC(=O)Nc1cc(NC(=O)c2ccc3sc4c(c3c2)NC[C@@H](C)NC4=O)ccc1F [III-6, (R)—N-(3-acrylamido-4-fluorophenyl)-3-methyl-5-oxo-2,3,4,5-tetrahydro-1H-benzo[4,5]thieno[3,2-e][1,4]diazepine-9-carboxamide]	–
< 100 nM	E (mass modification of ≥70%)	< 100 nM	C=CC(=O)N1CCOc2ccc(NC(=O)c3ccc4sc5c(c4c3)NC[C@@H](C)NC5=O)cc21 [III-11, (R)—N-(4-acryloyl-3,4-dihydro-2H-benzo[b][1,4]oxazin-6-yl)-3-methyl-5-oxo-2,3,4,5-tetrahydro-1H-benzo[4,5]thieno[3,2-e][1,4]diazepine-9-carboxamide]	–
501 to 999 nM	F (mass modification of 31-69%)	< 100 nM	C=CC(=O)Nc1cccc(NC(=O)c2ccc3sc4c(c3c2)NC[C@@H](C)NC4=O)c1 [III-12, (R)—N-(3-acrylamidophenyl)-3-methyl-5-oxo-2,3,4,5-tetrahydro-1H-benzo[4,5]thieno[3,2-e][1,4]diazepine-9-carboxamide]	–
< 100 nM	F (mass modification of 31-69%)	< 100 nM	C=CC(=O)Nc1cc(-c2ccc3c(ccc4sc5c(c43)NC[C@@H](C)NC5=O)n2)ccc1F [III-13, (R)—N-(2-fluoro-5-(10-methyl-8-oxo-9,10,11,12-tetrahydro-8H-[1,4]diazepino[5′,6′:4,5]thieno[3,2-f]quinolin-3-yl)phenyl)acrylamide]	–
< 100 nM	E (mass modification of ≥70%)	< 100 nM	C=CC(=O)N1C[C@@H](C)Oc2ccc(NC(=O)c3ccc4sc5c(c4c3)NC[C@@H](C)NC5=O)cc21 [III-31, (R)—N—((R)-4-acryloyl-2-methyl-3,4-dihydro-2H-benzo[b][1,4]oxazin-6-yl)-3-methyl-5-oxo-2,3,4,5-tetrahydro-1H-benzo[4,5]thieno[3,2-e][1,4]diazepine-9-carboxamide]	–
101 to 500 nM	E (mass modification of ≥70%)	< 100 nM	C=CS(=O)(=O)N1CCC[C@@H](NC(=O)c2ccc3sc4c(c3c2)NC[C@@H](C)NC4=O)C1 [III-44]	–
< 100 nM	E (mass modification of ≥70%)	< 100 nM	C=CC(=O)N1CCCC(NC(=O)c2ccc3sc4c(c3c2)NC[C@@H](C)NC4=O)C1 (stereo partly drawn) [III-51, (3R)—N-(1-acryloylpiperidin-3-yl)-3-methyl-5-oxo-2,3,4,5-tetrahydro-1H-benzo[4,5]thieno[3,2-e][1,4]diazepine-9-carboxamide]	–
101 to 500 nM	E (mass modification of ≥70%)	< 100 nM	C=CC(=O)Nc1cc(-c2ccc3c(ccc4sc5c(c43)NC[C@@H](C)NC5=O)n2)ccc1Cl [III-54, (R)—N-(2-chloro-5-(10-methyl-8-oxo-9,10,11,12-tetrahydro-8H-[1,4]diazepino[5′,6′:4,5]thieno[3,2-f]quinolin-3-yl)phenyl)acrylamide]	–
101 to 500 nM	E (mass modification of ≥70%)	< 100 nM	C=CC(=O)Nc1cc(-c2ccc3c(ccc4sc5c(c43)NC[C@@H](C)NC5=O)n2)ccc1C1CCN(C)CC1 [III-58, (R)—N-(5-(10-methyl-8-oxo-9,10,11,12-tetrahydro-8H-[1,4]diazepino[5′,6′:4,5]thieno[3,2-f]quinolin-3-yl)-2-(1-methylpiperidin-4-yl)phenyl)acrylamide]	–
